Data on 14 compounds can be found in patent US11613546B2, “Substituted pyridotriazine compounds and uses thereof” (Gilead Sciences, Inc., priority 2021, dated 2023).

What is called half-life is how long it takes for the measured level to halve. By CC50 is commonly meant the concentration that lowers cell viability or growth by half.

One data set concerns HIV-1 (IIIB). Kind of data set: Antiviral assay in MT-4 cells. In kind it is cell-based. The note with it: HIV-1 IIIB infected MT-4 cells, 5 days, Cell Titer Glo, read-out: MT4 EC50. A digest of the protocol: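 MT-4 cells infected with a 1:250 dilution of HIV-1 IIIB stock were incubated with serially diluted (1:3) compound for 5 days at 37 °C. Viability read by Cell Titer Glo luminescence; EC50 is the concentration giving 50% decrease in signal, from sigmoidal dose-response fits.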
For orientation: Cellular ATP, detected with luciferase, serves as a proxy for viable cell number.

Another data set has as its system pLai RLuc reporter virus. Put plainly: HIV MT-4 serum shift antiviral reporter assay. In kind it is cell-based. The essentials:
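MT-4 cells pre-infected with pLai RLuc virus for 2 h at 37 °C, then incubated 72 h at 37 °C with compound in medium (RPMI, 10% FBS) with or without 50% human serum; Renilla luminescence read. EC50 from sigmoidal fit; serum shift = EC50(HS/CCM)/EC50(CCM).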
On the technique in general: In a reporter assay the amount or activity of a reporter protein is the signal.

Data set [1] is described as follows: Monkey PK after single-dose intravenous infusion. In kind it is in vivo, monkeys. The following applies: cynomolgus, monkeys, single-dose intravenous infusion for 30 minutes, plasma, read-out: Cyno half-life (converted). Here is the method:
Test compound PK was determined in monkeys (Labcorp, Madison, Wis.) following a single-dose intravenous infusion for 30 minutes. The dosing vehicle was 10% N-methylpyrrolidone; 50% polyethylene glycol 300 and 40% water (pH 8.3) for intravenous administration in monkeys. Serial blood samples were collected at predose, 0.25, 0.48 (before end of infusion), 0.58, 0.75, 1, 1.5, 2, 4, 8, 12, 24, 48, 72, 96, 120, 144, and 168 hours postdose (based on start of infusion) and plasma test compound concentrations were quantified using an LC-MS/MS method.
Nonclinical plasma samples were prepared by addition of 200 μl cold acetonitrile/internal standard solution to 96-well plates containing 50 μl aliquots of each plasma sample. After protein precipitation, each of the supernatants (50 μl) were transferred to clean 96-well plates and diluted with 450 μl of water. The sample injection volume was 2 μl. Samples were analyzed by a multiple reaction monitoring LC-MS/MS method. LC-MS system consisted of a Cohesive LX-2 multiplex with two identical DIONEX UltiMate 3000 RS pumps, Hypersil Gold C18 HPLC column (50×2.1 mm, […]; Thermo Fisher Scientific), and the ABSciex QTRAP5500 Mass Spectrometer LC-MS/MS system. Chromatography was performed using 0.1% formic acid and 1% isopropyl alcohol in aqueous solution (MP A), and 0.1% formic acid and 1% isopropyl alcohol in acetonitrile (MP B).
Plasma PK parameters for test compounds in monkeys were estimated via noncompartmental analysis using the software program Phoenix WinNonlin, version 6.3 (Pharsight Corporation, Mountain View, Calif.). The following plasma PK parameters were estimated in nonclinical species (as appropriate): observed peak plasma concentration (Cmax), time to reach Cmax (Tmax), last quantifiable plasma concentration (Clast), tin, time of Clast (Tlast), area under the plasma concentration-time curve (AUC) from time 0 to Clast (AUClast), AUC from time 0 to infinity (AUCinf), CL, mean residence time (MRT), and volume of distribution at steady state (Vss).

Data set [2] is described as follows: Cytotoxicity assay in MT-4 cells. It counts as cell-based. The note with it: human, uninfected MT-4 cells, 5 days, Cell Titer Glo; read-out: CC50. A digest of the protocol: (§1)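 Uninfected MT-4 cells were incubated with 1:3 serially diluted compound in RPMI/10% FBS for 5 days at 37° C. Viability was read by CellTiter-Glo luminescence, with 10 μM puromycin as the baseline cytotoxicity control. Values are the concentration giving a 50% decrease in luminescence, from sigmoidal dose-response fits.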

For the next data set, the system named is MT-4 cells. Put plainly: Cytotoxicity assay in MT-4 cells. In kind it is cell-based. The note with it: uninfected MT-4 cells, 5 days, Cell Titer Glo; read-out: CC50. The essentials:
as §1

[3] abbreviates: Human immunodeficiency virus 1, IIIB, MT4, 120 h.
[4] abbreviates: Human immunodeficiency virus 1, 72 h, read-out: RLUC 50% HS (nM), HS/CCM: 50% human serum, 72 h, Renilla Glo.
Setting [5] is: Human immunodeficiency virus 1, 72 h, read-out: RLUC CCM (nM), cell culture media (RPMI, 10% FBS), 72 h, Renilla Glo.
Setting [6] is: read-out: RLUC 50% HS, HS/CCM: 50% human serum, 72 h, Renilla Glo.
The mark [7] stands for this setting: HS/CCM: 50% human serum, 72 h, Renilla Glo, read-out: RLUC 50% HS.
The mark [8] stands for this setting: cell culture media (RPMI, 10% FBS), 72 h, Renilla Glo, read-out: RLUC CCM.

Like-named read-outs stand apart in the source and are kept apart here.

With `C[C@@H]1C=C[C@H](C)N2CN1n1cc(C(=O)NCc3c(F)cc(F)cc3F)c(=O)c(O)c1C2=O` [Example C24, (1S,2R,5S)-8-hydroxy-2,5-dimethyl-7,9-dioxo-N-(2,4,6-trifluorobenzyl)-2,5,7,9-tetrahydro-1,6-methanopyrido[1,2-b][1,2,5]triazonine-10-carboxamide], the EC50 in the data set with HIV-1 (IIIB) (setting [3]) amounted to 0.98 nM; with pLai RLuc reporter virus (setting [4]), 328 nM; in the data set on pLai RLuc reporter virus (setting [5]) it was 0.44 nM. Further, the half-life in data set [1] was 57 h. Besides, in data set [2], the CC50 at 5 days is 11400 nM.

For `C[C@H]1C=C[C@H](C)N2CN1C(=O)c1c(O)c(=O)c(C(=O)NCc3c(F)cc(F)cc3F)cn12` [Example C25, (1S,2S,5S)-8-hydroxy-2,5-dimethyl-7,9-dioxo-N-(2,4,6-trifluorobenzyl)-2,5,7,9-tetrahydro-1,6-methanopyrido[1,2-b][1,2,5]triazonine-10-carboxamide], the EC50 with HIV-1 (IIIB) was 1 nM; in the data set with pLai RLuc reporter virus (setting [5]), 0.47 nM; in the data set with pLai RLuc reporter virus (setting [6]), 68 nM. The half-life in data set [1] is 55 h. Further, in data set [2], the CC50 at 5 days was 17400 nM.

For the compound `C[C@H]1CC[C@H](C)N2CN1C(=O)c1c(O)c(=O)c(C(=O)NCc3c(F)cc(F)cc3F)cn12` [Example C27, (1S,2R,5S)-8-hydroxy-2,5-dimethyl-7,9-dioxo-N-(2,4,6-trifluorobenzyl)-2,3,4,5,7,9-hexahydro-1,6-methanopyrido[1,2-b][1,2,5]triazonine-10-carboxamide], the EC50 in the data set with HIV-1 (IIIB) (setting [3]) turned out to be 1.3 nM; in the data set with pLai RLuc reporter virus (setting [5]), 0.55 nM; in the data set on pLai RLuc reporter virus (setting [6]), 594 nM. Also, the half-life in data set [1] was 48 h. For the same compound, the CC50 at 5 days in data set [2] is 9550 nM.

For `C[C@@H]1C=C[C@H](C)N2CN1n1cc(C(=O)NCc3ccc(F)cc3F)c(=O)c(O)c1C2=O` [Example C29, (1S,2R,5S)—N-(2,4-difluorobenzyl)-8-hydroxy-2,5-dimethyl-7,9-dioxo-2,5,7,9-tetrahydro-1,6-methanopyrido[1,2-b][1,2,5]triazonine-10-carboxamide], the EC50 with HIV-1 (IIIB) (setting [3]) turned out to be 0.71 nM; in the data set on pLai RLuc reporter virus (setting [4]), 169 nM; with pLai RLuc reporter virus (setting [5]), 0.31 nM. Besides, the half-life in data set [1] was 32 h. In addition, in data set [2], the CC50 at 5 days turned out to be 18700 nM.

As to `C[C@H]1C=C[C@H](C)N2CN1C(=O)c1c(O)c(=O)c(C(=O)NCc3ccc(F)cc3F)cn12` [Example C30, (1S,2S,5S)-8-hydroxy-2,5-dimethyl-7,9-dioxo-N-(2,4-difluorobenzyl)-2,5,7,9-tetrahydro-1,6-methanopyrido[1,2-b][1,2,5]triazonine-10-carboxamide], the EC50 is 1.3 nM in the data set with HIV-1 (IIIB) (setting [3]), 29 nM with pLai RLuc reporter virus (setting [4]) and 0.32 nM with pLai RLuc reporter virus (setting [5]). Further, the half-life in data set [1] is 6 h. In addition, the CC50 at 5 days in data set [2] was 35800 nM.

In the case of `C[C@H]1CC[C@H](C)N2CN1C(=O)c1c(O)c(=O)c(C(=O)NCc3ccc(F)cc3F)cn12` [Example C31, (1S,2S,5S)—N-(2,4-difluorobenzyl)-8-hydroxy-2,5-dimethyl-7,9-dioxo-2,3,4,5,7,9-hexahydro-1,6-methanopyrido[1,2-b][1,2,5]triazonine-10-carboxamide], the EC50 with HIV-1 (IIIB) (setting [3]) stood at 0.9 nM; in the data set with pLai RLuc reporter virus (setting [4]), 328 nM; in the data set on pLai RLuc reporter virus (setting [5]) it was 0.41 nM. Moreover, the half-life in data set [1] was 9 h. In data set [2], the CC50 at 5 days was 7850 nM.

`C[C@@H]1CC[C@H](C)N2CN1n1cc(C(=O)NCc3ccc(F)cc3F)c(=O)c(O)c1C2=O` [Example C37, (1S,2R,5S)—N-(2,4-difluorobenzyl)-8-hydroxy-2,5-dimethyl-7,9-dioxo-2,3,4,5,7,9-hexahydro-1,6-methanopyrido[1,2-b][1,2,5]triazonine-10-carboxamide]: the EC50 stood at 1.3 nM in the data set with HIV-1 (IIIB) (setting [3]), 325 nM with pLai RLuc reporter virus (setting [4]) and 0.87 nM with pLai RLuc reporter virus (setting [5]). Besides, the half-life in data set [1] is 22 h. In addition, the CC50 at 5 days in data set [2] is 8570 nM.

Turning to `C[C@H]1C=C[C@@H](CF)N2CN1C(=O)c1c(O)c(=O)c(C(=O)NCc3ccc(F)cc3F)cn12` [Example C44, (2S,5S)—N-(2,4-difluorobenzyl)-2-(fluoromethyl)-8-hydroxy-5-methyl-7,9-dioxo-2,5,7,9-tetrahydro-1,6-methanopyrido[1,2-b][1,2,5]triazonine-10-carboxamide], the EC50 in the data set on HIV-1 (IIIB) (setting [3]) turned out to be 1.2 nM. For the same compound, the half-life in data set [1] is 29 h. Also, the CC50 at 5 days in data set [2] worked out at 15000 nM.

On to `C[C@@H]1C=C[C@H](C)N2CN1n1cc(C(=O)NCc3ccc(F)c(Cl)c3F)c(=O)c(O)c1C2=O` [Example C63, (1S,2R,5S)—N-(3-chloro-2,4-difluorobenzyl)-8-hydroxy-2,5-dimethyl-7,9-dioxo-2,5,7,9-tetrahydro-1,6-methanopyrido[1,2-b][1,2,5]triazonine-10-carboxamide], for which the half-life in data set [1] is 110 h.

Regarding `CC[C@@H]1C=C[C@H](C)N2CN1n1cc(C(=O)NCc3c(F)cc(F)cc3F)c(=O)c(O)c1C2=O` [Example C72, (1S,2R,5S)-2-ethyl-8-hydroxy-5-methyl-7,9-dioxo-N-(2,4,6-trifluorobenzyl)-2,5,7,9-tetrahydro-1,6-methanopyrido[1,2-b][1,2,5]triazonine-10-carboxamide], the EC50 in the data set on HIV-1 (IIIB) (setting [3]) turned out to be 0.5 nM; in the data set on pLai RLuc reporter virus (setting [4]), 251 nM; in the data set with pLai RLuc reporter virus (setting [5]), 0.33 nM. Also, the half-life in data set [1] is 51 h. In data set [2], the CC50 at 5 days is 13800 nM.

As for `C[C@@H]1CCC(C)(C)N2CN1n1cc(C(=O)NCc3ccc(F)cc3F)c(=O)c(O)c1C2=O` [Example C93, (1S,2R)—N-(2,4-difluorobenzyl)-8-hydroxy-2,5,5-trimethyl-7,9-dioxo-2,3,4,5,7,9-hexahydro-1,6-methanopyrido[1,2-b][1,2,5]triazonine-10-carboxamide], the figures for the EC50 with HIV-1 (IIIB), with pLai RLuc reporter virus (setting [7]) and in the data set on pLai RLuc reporter virus (setting [8]) were 16.9 nM, 96.8 nM and 1.15 nM, respectively. Besides, the CC50 with MT-4 cells was found to be 50000 nM.

On to `C[C@H]1CCC(C)(C)N2CN1n1cc(C(=O)NCc3ccc(F)cc3F)c(=O)c(O)c1C2=O` [Example C94, (1R,2S)—N-(2,4-difluorobenzyl)-8-hydroxy-2,5,5-trimethyl-7,9-dioxo-2,3,4,5,7,9-hexahydro-1,6-methanopyrido[1,2-b][1,2,5]triazonine-10-carboxamide], for which the EC50 in the data set with HIV-1 (IIIB) turned out to be 25.1 nM; in the data set on pLai RLuc reporter virus (setting [7]) it was 361 nM; with pLai RLuc reporter virus (setting [8]), 6.21 nM. In the data set on MT-4 cells, the CC50 stood at 50000 nM.

With `C[C@H]1CCC(C)(C)N2CN1n1cc(C(=O)NCc3ccc(F)cc3F)c(=O)c(O)c1C2=O` [Example C95, (1S,2S)—N-(2,4-difluorobenzyl)-8-hydroxy-2,5,5-trimethyl-7,9-dioxo-2,3,4,5,7,9-hexahydro-1,6-methanopyrido[1,2-b][1,2,5]triazonine-10-carboxamide], the EC50 in the data set on HIV-1 (IIIB) (setting [3]) was 12.3 nM; with pLai RLuc reporter virus (setting [4]), 461 nM; in the data set on pLai RLuc reporter virus (setting [5]), 2.52 nM. In addition, the CC50 in the data set with MT-4 cells was 50000 nM.

`O=C(NCc1c(F)cc(F)cc1F)c1cn2c(c(O)c1=O)C(=O)N1CCCCN2C1` [Example C108, (1R)-8-hydroxy-7,9-dioxo-N-(2,4,6-trifluorobenzyl)-2,3,4,5,7,9-hexahydro-1,6-methanopyrido[1,2-b][1,2,5]triazonine-10-carboxamide]: the EC50 amounted to 3.3 nM with HIV-1 (IIIB), 208 nM in the data set with pLai RLuc reporter virus (setting [7]) and 0.98 nM with pLai RLuc reporter virus (setting [8]). Also, the half-maximal cytotoxic concentration (CC50) in the data set with MT-4 cells is 22900 nM.
